The subject of this experiment is M. tuberculosis H37Rv growth inhibition, 7H9 media. Kind of experiment: M. tuberculosis growth inhibition, HTS (AID 449762).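 As to all read-outs here: bacterial growth assessed after seven days of incubation.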 The settings on record: for IC90: measured here: IC90 growth inhibition.

Records with an inconclusive call do not appear.

For `Brc1ccc(-c2nc3ncccn3c2Nc2ccc3c(c2)OCCO3)o1`, the IC50 is 59.2 µM and the 90% effect concentration (IC90) is 90.2 µM. Take `COc1ccc(OC)c(Nc2nc(-c3sc(C)nc3C)cs2)c1`: the IC50 is 51.7 µM and the concentration for an effect of 90% (IC90) was more than 100 µM.

Take `O=C(OCc1ccccc1)/C(=C(\O)c1ccccc1Br)c1ccc(-c2ccccc2)cn1`: the half-maximal inhibitory concentration (IC50) is 23.9 µM and the IC90 came out at 45.8 µM. For `O=C1Nc2cc(C(=O)NCCCN3CCOCC3)ccc2S/C1=C/c1cccc(Cl)c1`, the 50% inhibitory concentration (IC50) was 26.3 µM and the IC90 was determined as 41 µM. On to `Cc1ccc(NC(=O)Cn2ccsc2=N)c([N+](=O)[O-])c1`, for which the IC50 is 5.48 µM and the IC90 was determined as 12.7 µM. Turning to `Cc1cc(Nc2cc(Cl)nc(Sc3ccc(NC(=O)C4CC4)cc3)n2)n[nH]1`, the half-maximal inhibitory concentration (IC50) is 26.2 µM and the IC90 was determined as 45.1 µM. For `Cc1cc(NC(=O)CCl)no1`, in that order: 1.31 µM and 3.6 µM. In the case of `CCOc1ccc2nc(NC(=O)C34CC5CC(CC(NC(C)=O)(C5)C3)C4)sc2c1`, the half-maximal inhibitory concentration (IC50) is 17.8 µM and the IC90 worked out at 28.4 µM.

Turning to `Cc1ccc(/C=C/S(=O)(=O)NCC(=O)OCC(=O)Nc2c(F)cccc2F)cc1`, the IC50 was 5.26 µM and the IC90 was determined as 13.2 µM. For `CC[C@H](C)[C@@H]1O[C@@]2(C=CC1C)CC1C[C@@H](CC=C(C)C(O[C@H]3CC(OC)C(O[C@H]4CC(OC)C(O)C(C)O4)C(C)O3)C(C)C=CC=C3CO[C@@H]4C(O)C(C)=C[C@@H](C(=O)O1)[C@]34O)O2` (stereo not given in full), in that order: 12.7 µM and 18.1 µM. In the case of `Cc1cccc(N2CCN(CC(=O)Nc3nccs3)CC2)c1C`, the IC50 is 16 µM and the concentration for an effect of 90% (IC90) was found to be 58.5 µM.

Take `CN(C)c1nc(NCc2ccccc2)nc(N/N=C/c2ccc3c(c2)OCO3)n1`: the IC50 was 42.7 µM and the concentration for an effect of 90% (IC90) was more than 100 µM. Take `O=C1Nc2ccccc2/C1=N\N=C\C1=C(N2CCOCC2)C(=C\c2ccccc2)/CC1`: the half-maximal inhibitory concentration (IC50) was 33.4 µM and the concentration for an effect of 90% (IC90) worked out at 59.8 µM. The like results for `COC(=O)c1ccc(NC(=S)NC(=O)C2CCC2)cc1` were, in that order, 41.9 µM and 55.9 µM. For the compound `CC1CCC(NC(=O)c2cc3c(s2)CCCC3)CC1` (stereo not given), the IC50 was 40.1 µM and the IC90 came to 57.1 µM. On to `c1ccc(-n2cnc3cc(NCc4cccs4)ccc32)cc1`, for which the IC50 was 85.6 µM and the 90% effect concentration (IC90) was 97.2 µM. With `CC(=O)N1CCN(c2ccc(Oc3ccc([N+](=O)[O-])c(C(F)(F)F)c3)cc2)CC1`, the concentration for half-maximal inhibition (IC50) is 7.54 µM and the IC90 amounted to 19.3 µM. In the case of `CCCCCC(=O)N/N=C(\C)c1ccccn1`, the IC50 was 13.9 µM and the 90% effect concentration (IC90) was 33.1 µM. Take `CC1CCCC(NC(=O)NC(=O)CCl)C1C` (stereo not given): the half-maximal inhibitory concentration (IC50) was 3.25 µM and the IC90 was 7.38 µM. Turning to `CC1CCc2c(sc3ncnc(NCCCOC(C)C)c23)C1` (stereo not given), the IC50 is 53.2 µM and the IC90 turned out to be 67.1 µM. As to `Cc1cc(OCc2cc(C(=O)N(C)CCc3cnn(C)c3)no2)cc(C)c1Cl`, the IC50 is 26.9 µM and the concentration for an effect of 90% (IC90) was found to be 51.4 µM. In the case of `CC1(C)c2[nH]c3ccccc3c2C[C@@H]2C(=O)N(Cc3ccccc3F)C(=O)N21`, the half-inhibitory concentration (IC50) was 47.1 µM and the 90% effect concentration (IC90) was more than 100 µM. For `COc1ccccc1NC(=O)Nc1nc(CC(=O)N2CCN(c3ccccc3F)CC2)cs1`, the 50% inhibitory concentration (IC50) is 41.7 µM and the IC90 is more than 100 µM. Regarding `O=C(/C=C/Sc1ncn[nH]1)c1ccc(Cl)cc1`, the IC50 was 16.8 µM and the IC90 worked out at 43.8 µM. In the case of `Cc1ccc(-n2nnc3c(=O)oc4ccccc4c32)cc1`, the IC50 was less than 0.2 µM and the IC90 came to 19.9 µM.

Consider `O=C(c1cc2nc(-c3ccc(F)cc3)cc(C(F)(F)F)n2n1)N1CCCCC1c1cccnc1` (stereo not given), for which the IC50 is 14 µM and the 90% effect concentration (IC90) turned out to be 31.4 µM. Take `CN1/C(=C\C(=O)C[n+]2ccc(C(=O)c3ccccc3)cc2)C(C)(C)c2ccccc21`: the IC50 was 7.85 µM and the IC90 was 15.3 µM.

Turning to `CC1CCCC(C)N1/N=C/c1c[nH]c2ccc(Br)cc12` (stereo not given), the half-inhibitory concentration (IC50) was 23.3 µM and the concentration for an effect of 90% (IC90) worked out at 26.3 µM. On to `Cc1nn(Cc2ccccc2Cl)c2sc(C(=O)NCCCn3ccnc3)cc12`, for which the IC50 was 37.5 µM and the 90% effect concentration (IC90) was 49.5 µM.

For `CC(=O)c1c(N2CCCC2)[nH]c(-c2ccccc2)nc1=S`, the 50% inhibitory concentration (IC50) was 16.2 µM and the IC90 came to 67.1 µM. Regarding `COc1nc(-c2ccccc2)cc(-c2ccc(OC)c(OC)c2)n1`, the IC50 was 45.3 µM and the IC90 was more than 100 µM.

Take `COC(=O)CN1C(c2ccc(Cl)cc2)=Nc2ccc(Cl)cc2C1c1ccccc1` (stereo not given): the IC50 was 11.8 µM and the 90% effect concentration (IC90) came to 13.7 µM. Take `Cc1ccc2nc(N/N=C/c3ccccc3C#N)nc(-c3ccccc3)c2c1`: the 50% inhibitory concentration (IC50) is 81.1 µM and the 90% effect concentration (IC90) is more than 100 µM.

Take `O=C(NC1CCCCC1)C(c1ccc2ncccc2c1)N(Cc1ccco1)C(=O)c1ccc2c(c1)OCCO2` (stereo not given): the IC50 was 92.7 µM and the IC90 is more than 100 µM. On to `CCOC(=O)c1cnc(-n2nc(C)cc2C)nc1NNc1cc(C)nc(-c2ccccc2)n1`, for which the IC50 was 23.7 µM and the concentration for an effect of 90% (IC90) was found to be 92 µM. Take `O=C(CSC(=S)N1CCCC1)c1cc(Br)cc(Br)c1O`: the IC50 is 23.9 µM and the 90% effect concentration (IC90) was determined as 36.6 µM. As to `COC(=O)c1ccc(C(=O)OC)c(NC(=O)CSc2cccc[n+]2[O-])c1`, the 50% inhibitory concentration (IC50) is 2.97 µM and the 90% effect concentration (IC90) amounted to 3.37 µM. For `CCOC(=O)N1CCN=C1SCc1ccc(C(F)(F)F)cc1`, the 90% effect concentration (IC90) is more than 100 µM.

As to `Cc1nnc(SCc2ccccc2Cl)n(N)c1=O`, the IC50 was 0.38 µM and the IC90 stood at 5.3 µM. The like results for `O=C(NNc1nc(-c2ccccc2)cs1)c1ccccc1` were, in that order, 7.6 µM and more than 100 µM.

For the compound `CCc1ccc(-c2nn(-c3ccccc3)cc2CSC(=N)N)cc1`, the half-inhibitory concentration (IC50) was 17.5 µM and the IC90 is 22.4 µM. In the case of `Cc1ncc(C23CC4CC(CC(C4)C2)C3)[nH]1`, the IC50 was 49.9 µM and the IC90 turned out to be 51.5 µM.

`O=c1[nH][nH]c(-c2ccccc2O)c1C(C[N+](=O)[O-])c1cccc(Cl)c1` (stereo not given): the IC50 was 74.6 µM and the IC90 was more than 100 µM. As for `CC(C)(C)NC(=O)C(=O)NNC(=O)c1ccc(C(C)(C)C)cc1`, the IC50 was 5.71 µM and the IC90 was determined as 17.6 µM. As for `O=C(c1ccc(-c2ccccc2)c(F)c1)C1CCCN(C(=O)c2cncs2)C1` (stereo not given), the IC50 was 35.9 µM and the 90% effect concentration (IC90) came to 46.8 µM.

`CNC(C)C#Cc1ccc2oc3cc(C)c(C)cc3c(=O)c2c1` (stereo not given): the IC50 was 4.55 µM and the 90% effect concentration (IC90) was found to be 17.9 µM. For `CCCn1c(Nc2nc3ccccc3n2C)nc2ccccc21`, in that order: 83 µM and 88.7 µM.

Turning to `CCOC(=O)c1cnc(Nc2nc3ccccc3o2)nc1CSC(=S)N(CC)CC`, the IC50 is 20.5 µM and the 90% effect concentration (IC90) is 25.4 µM. For `O=C(CN1CCN(C(=O)COc2cccc(F)c2)CC1)Nc1ccc(Cl)c(C(F)(F)F)c1`, in that order: 49 µM and 55.4 µM. Turning to `CCNc1nc(NCC)nc(N/N=C/c2ccc([N+](=O)[O-])o2)n1`, the 50% inhibitory concentration (IC50) is 0.99 µM and the IC90 turned out to be 1.67 µM.

For the compound `CCOC(=O)CSc1nc(C)c(C(=O)OCC)s1`, the 50% inhibitory concentration (IC50) was 3.62 µM and the 90% effect concentration (IC90) is 9.29 µM. `CC(=O)Oc1ccc(/C=N\NC(=O)c2cc3c(ccc4ccccc43)o2)cc1`: the IC50 is 58.5 µM and the IC90 was more than 100 µM. For the compound `O=C1NCC(c2ccccc2)C1C(=O)N/N=C\c1ccc(-c2ccc(Cl)c(Cl)c2)o1` (stereo not given), the half-inhibitory concentration (IC50) was 91 µM and the IC90 is more than 100 µM. In turn, `O=C(N/N=C/c1c(F)c(F)c(F)c(F)c1F)c1cccc(S(=O)(=O)N2CCOCC2)c1` showed a 90% effect concentration (IC90) of more than 100 µM. On to `CCOC(=O)c1c(NC(=O)CCl)sc(CN(C)C)c1-c1ccccc1`, for which the IC50 is 0.92 µM and the IC90 stood at 4.68 µM.

For the compound `O=C(c1cc([N+](=O)[O-])cc([N+](=O)[O-])c1)N(Cc1nnc(-c2ccccc2Cl)o1)C1CC1`, the IC50 is 2.59 µM and the IC90 was determined as 8.42 µM. The like results for `Cc1ccc2c(c1)c(/C=C/c1cc[n+](C)cc1)c(C)n2C` were, in that order, 5.13 µM and 6.8 µM.

For the compound `COc1cc(/C=C/c2cc[n+](C)cc2)ccc1OCC(=O)Nc1ccc(Cl)c(Cl)c1`, the 50% inhibitory concentration (IC50) is 21.7 µM and the concentration for an effect of 90% (IC90) turned out to be 23.5 µM. For `COc1ccc(C2=CC(c3c(C)nn(-c4ccccc4)c3Cl)n3nnnc3N2)cc1OC` (stereo not given), in that order: 40.8 µM and 78.9 µM. Consider `CCOC(=O)CNC(=O)c1sc2ncnc(N3CCc4ccccc4C3)c2c1C`, for which the IC50 was 53.2 µM and the IC90 is more than 100 µM. Regarding `COc1ccc(COC(=O)CCNC(=O)c2ccc(Cl)cc2)cc1`, the half-maximal inhibitory concentration (IC50) is 58.7 µM and the 90% effect concentration (IC90) is more than 100 µM.

Take `CCCCCCC#Cc1ccc2c(c1)COc1c3ccccc3nn1-2`: the IC50 is 93.8 µM and the IC90 was more than 100 µM. For the compound `CN1CCN(C2Cc3ccccc3Sc3cc(C(F)(F)F)ccc32)CC1` (stereo not given), the IC50 was 13.5 µM and the concentration for an effect of 90% (IC90) was 15.6 µM.

Turning to `CCOc1ccc(OCCSc2ccc(S(=O)(=O)N3CCN(C)CC3)cn2)cc1`, the IC50 was 22.1 µM and the IC90 amounted to 28.6 µM. As to `O=C(c1ccc(-c2cccc(C(F)(F)F)c2)o1)N1CCN(c2ccccc2O)CC1`, the IC50 was 18.5 µM and the 90% effect concentration (IC90) came out at 26.1 µM. On to `CCCn1c(=N)c(C(=O)NCc2ccc3c(c2)OCO3)cc2c(=O)n3cccc(C)c3nc21`, for which the half-inhibitory concentration (IC50) was 19.8 µM and the IC90 was found to be 29 µM. As to `Oc1cc(Nc2ccccc2)cc2cccnc12`, the IC50 is 13.8 µM and the IC90 was 26.6 µM.

`C=CCn1cccc(/C=C/C(=O)c2ccc(C(C)(C)C)cc2)c1=S`: the IC50 is 27.8 µM and the IC90 turned out to be 56.5 µM. For `O=Nc1c2nc3ccccc3n(O)c-2c2ccccc12`, the half-inhibitory concentration (IC50) was 10.7 µM and the IC90 stood at 15.7 µM.

For the compound `Clc1ccc(NNc2ccnc3cc(Cl)ccc23)cc1`, the half-inhibitory concentration (IC50) is 16.8 µM and the IC90 was 21.5 µM.

`CN(Cc1ccco1)c1ncnc2ccc(-c3ccc4c(ccn4C)c3)cc12`: the half-maximal inhibitory concentration (IC50) is 16.9 µM and the 90% effect concentration (IC90) was 44.9 µM.

One may read the IC50 as the midpoint of a concentration-inhibition curve. A word on the IC90: it is the point of the concentration-response curve where the effect stands at 90%. A high value points to weaker potency.

Source of the values: PubChem BioAssay AID449762 (Southern Research Specialized Biocontainment Screening …, 2010).
